Results from article PMC12299904, “Purine–Hydrazone Scaffolds as Potential Dual EGFR/HER2 Inhibitors” (Pharmaceuticals, 2025).
Several values for one entry are separate records, joined by “and”; a condition that tells them apart may be missing. Equal values may be shown once. Entries after “also recorded” stand apart in the source; their conditions may differ. Read-outs that look alike come from different tables or passages of the source.

Experiments:
A549 cells [1] = assay: In vitro cytotoxicity assay (MTT), A549; conditions: for viability at 10 µM / IC50: Homo sapiens, A549, 48 h; for viability at 10 µM: read-out: percentage of cell viability, A549; for Selectivity index (SI), A549: IC50 against MRC-5/IC50 against A549
Procedure: (§1) The selected cell lines include A549, a lung cancer cell line that is characterized by its high expression of EGFR; SKOV-3, an ovarian cancer cell line, selected for its overexpression of both EGFR and HER2; and the breast cancer cell line (SKBR-3), characterized by HER2 overexpression.
(§2) Cells were passaged regularly at around 80% confluency using […] and maintained in 75 cm^2 flasks at 37 °C in a humidified atmosphere containing 5% CO2.
(§3) Approximately 10 × 10^3 cells were seeded per well of the 96-well plates using drug-free media and incubated for 24 h. […] After 48 h of drug exposure, the supernatant was aspirated, and the cells were washed with 100 μL of PBS. The MTT assay was performed by creating a stock solution of MTT at a concentration of 5 mg/mL in PBS. From this stock, a solution of MTT in the cell culture media was prepared to achieve a final concentration of 0.5 mg/mL. […] The MTT solution was thereafter removed, and the generated formazan crystals were dissolved by adding 100 μL of propanol/DMSO (50:50) per well. Absorbance was measured at 570 nm, and IC50 values for each compound were calculated by comparison against negative untreated controls.

SKOV-3 cells = assay: In vitro cytotoxicity assay (MTT), SKOV-3; format: cell-based, human; conditions: for viability at 10 µM: SK-OV-3, read-out: percentage of cell viability, SKOV-3; for viability at 10 µM / IC50: 48 h, MTT; for IC50: mean ± SD, three experiments; for Selectivity index (SI), SKOV-3: IC50 against MRC-5/IC50 against SKOV-3
Procedure: as §1, §2, §3

SKBR-3 cells = assay: In vitro cytotoxicity assay (MTT), SKBR-3; format: cell-based, human; conditions: for IC50: MTT, 48 h, mean ± SD, three experiments; for Selectivity index (SI), SKBR-3: IC50 against MRC-5/IC50 against SKBR-3
Procedure: as §1, §2, §3

[2] = In vitro cytotoxicity assay (MTT), normal cell line MRC-5; format: cell-based; conditions: MRC-5 normal embryonic lung cells, normal human embryonic lung cell line, mean ± SD
Procedure: as §2, §3

A2780 cells = assay: In vitro cytotoxicity assay (MTT), A2780; format: cell-based; conditions: Homo sapiens, 48 h, read-out: percentage of cell viability, A2780
A549 cells [3] = assay: Cell cycle assay (PI, flow cytometry); format: cell-based, human; conditions: A549, IC50 concentration; for Cell cycle comment / DNA Content (%) %G0–G1 / DNA Content (%) %G2/M / DNA Content (%) %S: 24 h; for DNA Content (%) %G0–G1 / DNA Content (%) %G2/M / DNA Content (%) %S: mean ± SD; for Cell Cycle Distribution Index (CDI): CDI = (G2/M + S)/(G0–G1)
Procedure: In a flat-bottom 6-well plate, 3 × 10^5 A549 cells were seeded per well and incubated at 37 °C for 24 h to allow attachment. […] Following a 24 h incubation period, the supernatant was removed by suction, and adherent cells were washed with PBS and collected with trypsin. Additionally, negative control (untreated) samples were also prepared. The cells were resuspended in 2 mL of 80% v/v of cold methanol for 45 min to achieve fixation. After centrifugation, the methanol was discarded, and the resulting cell pellets were washed and stained at room temperature for 30 min in the dark using propidium iodide PI (10% v/v of a 1 mg/mL stock solution in PBS) and RNAse (15% v/v of a 1 mg/mL stock solution in PBS). The cells were analyzed using flow cytometry, reading histograms in the red channel adjusted to PI (Em. 617 nm, Ex. 535 nm).

EGFR = target: T1, EGFR (Homo sapiens, UniProt P00533); assay: In vitro enzyme inhibition assay, EGFR Kinase Assay Kit (BPS Bioscience); format: biochemical; conditions: three independent experiments; read-out: Protein Kinase Inhibition IC50, EGFR
T1 construct: purchased BPS Bioscience 40321

HER2 = target: T2, HER2 (Homo sapiens, UniProt P04626); assay: In vitro enzyme inhibition assay, HER2 Kinase Assay Kit (BPS Bioscience); format: biochemical; conditions: three independent experiments; read-out: Protein Kinase Inhibition IC50, HER2
T2 construct: purchased BPS Bioscience 40721

A549 cells [4] = assay: Apoptosis analysis (Annexin V-FITC/PI, flow cytometry); format: cell-based, human; conditions: A549, IC50 concentration, 24 h; for Apoptosis, Early / Apoptosis, Late / Necrosis: mean ± SD, % printed in text only
Procedure: Briefly, in flat-bottom 6-well plates, a total of 3 × 10^5 A549 cells were seeded per well and maintained at 37 °C for 24 h in a CO2 humidified atmosphere. Next, the cells were subjected to treatment with the equipotent concentration (1xIC50) of the tested compounds in the cell culture media. Following a 24 h incubation period, the supernatant was removed by suction, and attached cells were washed with PBS and collected using trypsin. Following the quenching of trypsin with culture media, the cells were resuspended as a single cell suspension in Annexin V binding buffer with 1% (v/v) propidium iodide and 1% (v/v) Annexin V-FITC. Negative (untreated) control samples were also included in the experiment. The samples were analyzed using flow cytometry, reading PI at Em. 617 nm, Ex. 535 nm, and Annexin-V-FITC at Em. 520 nm, Ex. 488 nm, while collecting 20,000 events/sample.

[5] = system: A549, SKOV-3, A2780, SKBR-3 cells; assay: MTT assay, ranges stated over several cell lines; format: cell-based, human; conditions: Homo sapiens; 10 µM, 48 h; A549 and SKOV-3; read-out: cell viability range for A549 and SKOV-3
Procedure: as §1, §2, §3

[6] = read-out: Cytotoxicity (IC50), A549, MTT, 48 h, mean ± SD, three experiments

T1 sequence (P00533 25-1210): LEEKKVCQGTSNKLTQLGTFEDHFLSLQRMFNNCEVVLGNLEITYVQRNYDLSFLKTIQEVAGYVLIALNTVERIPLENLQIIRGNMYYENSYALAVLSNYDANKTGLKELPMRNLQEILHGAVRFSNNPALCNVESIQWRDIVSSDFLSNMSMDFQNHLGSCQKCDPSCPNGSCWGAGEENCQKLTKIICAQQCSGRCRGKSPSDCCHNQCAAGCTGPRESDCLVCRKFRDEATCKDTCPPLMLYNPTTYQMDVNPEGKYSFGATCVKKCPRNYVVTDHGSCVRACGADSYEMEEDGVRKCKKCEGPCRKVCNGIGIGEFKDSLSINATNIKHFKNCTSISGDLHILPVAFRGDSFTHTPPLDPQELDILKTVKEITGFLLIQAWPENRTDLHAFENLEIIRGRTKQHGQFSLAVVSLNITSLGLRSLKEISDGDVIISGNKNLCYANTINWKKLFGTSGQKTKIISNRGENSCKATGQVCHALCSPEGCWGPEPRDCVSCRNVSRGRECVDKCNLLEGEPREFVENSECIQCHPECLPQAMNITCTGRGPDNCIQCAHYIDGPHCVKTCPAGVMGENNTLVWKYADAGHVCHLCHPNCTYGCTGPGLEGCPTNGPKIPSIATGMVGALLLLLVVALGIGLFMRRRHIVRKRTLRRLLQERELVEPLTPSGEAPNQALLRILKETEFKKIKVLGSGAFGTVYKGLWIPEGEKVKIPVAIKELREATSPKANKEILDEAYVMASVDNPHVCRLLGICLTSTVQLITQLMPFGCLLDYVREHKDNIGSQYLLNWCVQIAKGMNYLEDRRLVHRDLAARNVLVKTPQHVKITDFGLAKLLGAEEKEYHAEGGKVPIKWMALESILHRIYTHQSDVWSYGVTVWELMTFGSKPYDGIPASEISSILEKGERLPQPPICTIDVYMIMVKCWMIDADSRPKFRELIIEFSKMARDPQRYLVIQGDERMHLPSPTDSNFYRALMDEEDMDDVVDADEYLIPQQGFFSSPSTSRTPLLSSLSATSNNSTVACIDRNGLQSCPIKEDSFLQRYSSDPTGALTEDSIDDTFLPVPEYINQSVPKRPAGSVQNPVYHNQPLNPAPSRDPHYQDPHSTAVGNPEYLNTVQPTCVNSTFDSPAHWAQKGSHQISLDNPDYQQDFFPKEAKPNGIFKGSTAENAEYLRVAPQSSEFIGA
T2 sequence (P04626 23-1255): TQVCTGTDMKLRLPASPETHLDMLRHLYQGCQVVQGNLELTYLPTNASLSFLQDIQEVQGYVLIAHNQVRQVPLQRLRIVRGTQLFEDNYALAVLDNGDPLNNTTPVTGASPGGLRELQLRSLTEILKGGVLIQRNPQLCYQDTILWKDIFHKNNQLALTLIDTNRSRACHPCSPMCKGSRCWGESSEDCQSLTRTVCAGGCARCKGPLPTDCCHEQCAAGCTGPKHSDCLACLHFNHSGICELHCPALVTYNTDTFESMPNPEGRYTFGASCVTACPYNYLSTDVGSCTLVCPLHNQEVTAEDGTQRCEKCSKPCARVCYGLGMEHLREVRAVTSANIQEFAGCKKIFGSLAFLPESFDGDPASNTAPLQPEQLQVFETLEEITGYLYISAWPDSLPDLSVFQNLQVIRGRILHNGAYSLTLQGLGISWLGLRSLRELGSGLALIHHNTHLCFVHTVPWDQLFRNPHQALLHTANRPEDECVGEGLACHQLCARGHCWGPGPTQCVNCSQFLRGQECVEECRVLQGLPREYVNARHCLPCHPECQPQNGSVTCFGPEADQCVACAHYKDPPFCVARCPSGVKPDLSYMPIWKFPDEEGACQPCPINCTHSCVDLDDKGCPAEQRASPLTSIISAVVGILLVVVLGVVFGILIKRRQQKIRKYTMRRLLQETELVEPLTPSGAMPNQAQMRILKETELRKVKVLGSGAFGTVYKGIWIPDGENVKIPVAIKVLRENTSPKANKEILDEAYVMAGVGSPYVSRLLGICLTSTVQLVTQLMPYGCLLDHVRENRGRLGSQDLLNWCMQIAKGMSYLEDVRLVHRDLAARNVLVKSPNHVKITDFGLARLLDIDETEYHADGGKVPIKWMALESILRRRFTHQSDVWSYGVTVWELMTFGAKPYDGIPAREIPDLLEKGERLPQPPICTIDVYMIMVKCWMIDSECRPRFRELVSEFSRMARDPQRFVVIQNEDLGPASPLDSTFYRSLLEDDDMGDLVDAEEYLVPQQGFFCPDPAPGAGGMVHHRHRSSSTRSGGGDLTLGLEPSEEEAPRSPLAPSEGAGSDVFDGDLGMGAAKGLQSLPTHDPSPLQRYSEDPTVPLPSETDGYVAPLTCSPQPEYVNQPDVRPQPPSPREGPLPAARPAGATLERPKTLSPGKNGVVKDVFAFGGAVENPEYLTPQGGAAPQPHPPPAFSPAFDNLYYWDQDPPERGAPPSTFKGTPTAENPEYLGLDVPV

N#Cc1ccc(/C=N/NC(=O)c2ccc(Nc3ncnc4nc[nH]c34)cc2)cc1 [7a, (E)-4-((7H-Purin-6-yl)amino)-N′-(4-cyanobenzylidene)benzohydrazide]
viability at 10 µM (A549 cells [1]): 50% | viability at 10 µM (SKOV-3 cells; Homo sapiens): 58%

COc1cccc(/C=N/NC(=O)c2ccc(Nc3ncnc4nc[nH]c34)cc2)c1 [12a, (E)-4-((7H-Purin-6-yl)amino)-N′-(3-methoxybenzylidene)benzohydrazide]
viability at 10 µM (A549 cells [1]): 75%

C#Cc1cccc(Nc2ncnc3cc(OCCOC)c(OCCOC)cc23)c1 [Erlotinib, erlotinib, reference compound]
IC50 (A549 cells [1]; read-out: Cytotoxicity (IC50), A549): 2420 ± 784 nM | viability at 10 µM (A549 cells [1]): 48% | IC50 (SKBR-3 cells; Homo sapiens, SK-BR-3, 48 h): 5120 ± 879 nM | IC50 (SKOV-3 cells; Homo sapiens, SK-OV-3, 48 h): 5180 ± 1200 nM | viability at 10 µM (SKOV-3 cells; Homo sapiens): 44% | IC50 at 48 h [2]: 19360 ± 138 nM | viability at 10 µM (A2780 cells): 39%

O=C(N/N=C/c1cccc(-c2ccccc2)c1)c1ccc(Nc2ncnc3nc[nH]c23)cc1 [19a, (E)-4-((7H-purin-6-yl)amino)-N′-([1,1′-biphenyl]-3-ylmethylene)benzohydrazide]
IC50 (A549 cells [1]; [6]): 810 ± 139 nM | viability at 10 µM (A549 cells [1]): 39% | Selectivity index (SI), A549 (A549 cells [1]): 64.6 | Cell cycle comment (A549 cells [3]): cell cycle arrest at the G1 phase | DNA Content (%) %G0–G1 (A549 cells [3]): 86.9% and 86.88% and 86.88 ± 0.95 % | DNA Content (%) %G2/M (A549 cells [3]): 3.9% and 3.90 ± 1.22 % | DNA Content (%) %S (A549 cells [3]): 9.2% and 9.21% and 9.21 ± 1.43 % | Cell Cycle Distribution Index (CDI) (A549 cells [3]): 0.15 | IC50 (EGFR): 80 nM and 81 nM | IC50 (SKBR-3 cells; Homo sapiens, SK-BR-3, 48 h): 1410 nM | Selectivity index (SI), SKBR-3 (SKBR-3 cells): 37.03 | IC50 (SKBR-3 cells): 1410 ± 362 nM | IC50 (SKOV-3 cells; Homo sapiens, SK-OV-3, 48 h): 2190 ± 160 nM | viability at 10 µM (SKOV-3 cells; Homo sapiens): 43% | Selectivity index (SI), SKOV-3 (SKOV-3 cells): 23.88 | IC50 (SKOV-3 cells): 2190 ± 164 nM | IC50 (HER2): 59 ± 2 nM | percentage of live cells (A549 cells [4]): 62.3% | Apoptosis, Early (A549 cells [4]): 9.72% and 9.72 ± 1.06 % | Apoptosis, Late (A549 cells [4]): 23.13% and 23.13 ± 0.73 % | Necrosis (A549 cells [4]): 4.84 ± 0.34% | IC50 at 48 h [2]: 52360 ± 283 nM | viability at 10 µM (A2780 cells): 18%

O=C(N/N=C/c1cccc2ccccc12)c1ccc(Nc2ncnc3c2ncn3C2CCCC2)cc1 [23b, (E)-4-((9-cyclopentyl-9H-purin-6-yl)amino)-N′-(naphthalen-1-ylmethylene)benzohydrazide]
viability at 10 µM [5]: 81 to 100%

NS(=O)(=O)c1cc(/C=N/NC(=O)c2ccc(Nc3ncnc4c3ncn4C3CCCC3)cc2)ccc1F [22b, (E)-5-((2-(4-((9-cyclopentyl-9H-purin-6-yl)amino)benzoyl)hydrazineylidene)methyl)-2-fluorobenzenesulfonamide]
IC50 (A549 cells [1]; [6]): 3950 ± 615 nM | viability at 10 µM (A549 cells [1]): 35% | Selectivity index (SI), A549 (A549 cells [1]): 15.34 | Cell cycle comment (A549 cells [3]): arrests the cell cycle at the G1 phase; also recorded: Cell cycle arrest@G1 | DNA Content (%) %G0–G1 (A549 cells [3]): 77.0% and 77.04% and 77.04 ± 1.85 % | DNA Content (%) %G2/M (A549 cells [3]): 4.4% and 4.35% and 4.35 ± 0.29 % | DNA Content (%) %S (A549 cells [3]): 18.6% and 18.60 ± 2.00 % | Cell Cycle Distribution Index (CDI) (A549 cells [3]): 0.29 | IC50 (EGFR): 70 nM and 74 nM | IC50 (SKBR-3 cells; Homo sapiens, SK-BR-3, 48 h): 3800 ± 1400 nM | Selectivity index (SI), SKBR-3 (SKBR-3 cells): 15.94 | IC50 (SKBR-3 cells): 3800 ± 1400 nM | IC50 (SKOV-3 cells; Homo sapiens, SK-OV-3, 48 h): 1540 ± 470 nM | viability at 10 µM (SKOV-3 cells; Homo sapiens): 31% | Selectivity index (SI), SKOV-3 (SKOV-3 cells): 39.32 | IC50 (SKOV-3 cells): 1540 ± 470 nM | IC50 (HER2): 30 nM and 33 nM | percentage of live cells (A549 cells [4]): 72.51% | Apoptosis, Early (A549 cells [4]): 5.92% and 5.92 ± 0.74 % | Apoptosis, Late (A549 cells [4]): 18.21% and 18.21 ± 0.12 % | Necrosis (A549 cells [4]): 3.35 ± 0.49% | IC50 at 48 h [2]: 60590 ± 329 nM | viability at 10 µM (A2780 cells): 47%

O=C(N/N=C/c1cccc2ccccc12)c1ccc(Nc2ncnc3nc[nH]c23)cc1 [23a, (E)-4-((7H-Purin-6-yl)amino)-N′-(naphthalen-1-ylmethylene) benzohydrazide]
viability at 10 µM (A549 cells [1]): 74% | viability at 10 µM (SKOV-3 cells; Homo sapiens): 92%

O=C(N/N=C/c1cccc(-c2ccccc2)c1)c1ccc(Nc2ncnc3c2ncn3C2CCCC2)cc1 [19b, (E)-N′-((1,1′-biphenyl)-3-ylmethylene)-4-((9-cyclopentyl-9H-purin-6-yl)amino)benzohydrazide]
IC50 (A549 cells [1]; [6]): 1840 ± 82 nM | IC50 (SKBR-3 cells; Homo sapiens, SK-BR-3, 48 h): 3200 ± 899 nM | IC50 (SKOV-3 cells; Homo sapiens, SK-OV-3, 48 h): 15600 ± 1480 nM

CS(=O)(=O)CCNCc1ccc(-c2ccc3ncnc(Nc4ccc(OCc5cccc(F)c5)c(Cl)c4)c3c2)o1 [Lapatinib, lapatinib, reference compound]
IC50 (A549 cells [1]; [6]): 11600 ± 249 nM | IC50 (SKBR-3 cells; Homo sapiens, SK-BR-3, 48 h): 8540 ± 640 nM | IC50 (SKOV-3 cells; Homo sapiens, SK-OV-3, 48 h): 17000 ± 2570 nM | IC50 at 48 h [2]: 43940 ± 420 nM

O=C(N/N=C/c1cccc(C(F)(F)F)c1)c1ccc(Nc2ncnc3nc[nH]c23)cc1 [16a, (E)-4-((7H-Purin-6-yl)amino)-N′-(3-(trifluoromethyl)benzylidene)benzohydrazide]
viability at 10 µM (A549 cells [1]): 68% | viability at 10 µM (SKOV-3 cells; Homo sapiens): 69%

O=C(N/N=C/c1ccccc1)c1ccc(Nc2ncnc3c2ncn3C2CCCC2)cc1 [6b, (E)-N′-benzylidene-4-((9-cyclopentyl-9H-purin-6-yl)amino)benzohydrazide]
viability at 10 µM (A549 cells [1]): 50% | viability at 10 µM (SKOV-3 cells; Homo sapiens): 60% | viability at 10 µM (A2780 cells): 52%

COc1ccc(/C=N/NC(=O)c2ccc(Nc3ncnc4nc[nH]c34)cc2)cc1 [13a, (E)-4-((7H-Purin-6-yl)amino)-N′-(4-methoxybenzylidene)benzohydrazide]
viability at 10 µM (A549 cells [1]): 86%

O=C(N/N=C/c1ccc([N+](=O)[O-])cc1)c1ccc(Nc2ncnc3nc[nH]c23)cc1 [15a, (E)-4-((7H-Purin-6-yl)amino)-N′-(4-nitrobenzylidene)benzohydrazide]
viability at 10 µM (A549 cells [1]): 49% | viability at 10 µM (SKOV-3 cells; Homo sapiens): 44%

O=C(N/N=C/c1ccc(F)c(C(F)(F)F)c1)c1ccc(Nc2ncnc3nc[nH]c23)cc1 [17a, (E)-4-((7H-Purin-6-yl)amino)-N′-(4-fluoro-3-(trifluoromethyl)benzylidene) benzohydrazide]
viability at 10 µM (A549 cells [1]): 59% | viability at 10 µM (SKOV-3 cells; Homo sapiens): 63%

O=C(N/N=C/c1ccccc1)c1ccc(Nc2ncnc3nc[nH]c23)cc1 [6a, (E)-4-((7H-Purin-6-yl)amino)-N′-benzylidenebenzohydrazide]
viability at 10 µM (A549 cells [1]): 63% | viability at 10 µM (SKOV-3 cells; Homo sapiens): 85%
